According to US11945813B2, “5-substituted 4-amino-1H-benzo[c][1,2,6]thiadiazine 2,2-dioxides and formulations and uses thereof” (Firmenich Incorporated, priority 2018, dated 2024):

Target: T1, T1R2/T1R3 taste receptor (Homo sapiens, UniProt Q8TE23)
T1 sequence (Q8TE23 20-839): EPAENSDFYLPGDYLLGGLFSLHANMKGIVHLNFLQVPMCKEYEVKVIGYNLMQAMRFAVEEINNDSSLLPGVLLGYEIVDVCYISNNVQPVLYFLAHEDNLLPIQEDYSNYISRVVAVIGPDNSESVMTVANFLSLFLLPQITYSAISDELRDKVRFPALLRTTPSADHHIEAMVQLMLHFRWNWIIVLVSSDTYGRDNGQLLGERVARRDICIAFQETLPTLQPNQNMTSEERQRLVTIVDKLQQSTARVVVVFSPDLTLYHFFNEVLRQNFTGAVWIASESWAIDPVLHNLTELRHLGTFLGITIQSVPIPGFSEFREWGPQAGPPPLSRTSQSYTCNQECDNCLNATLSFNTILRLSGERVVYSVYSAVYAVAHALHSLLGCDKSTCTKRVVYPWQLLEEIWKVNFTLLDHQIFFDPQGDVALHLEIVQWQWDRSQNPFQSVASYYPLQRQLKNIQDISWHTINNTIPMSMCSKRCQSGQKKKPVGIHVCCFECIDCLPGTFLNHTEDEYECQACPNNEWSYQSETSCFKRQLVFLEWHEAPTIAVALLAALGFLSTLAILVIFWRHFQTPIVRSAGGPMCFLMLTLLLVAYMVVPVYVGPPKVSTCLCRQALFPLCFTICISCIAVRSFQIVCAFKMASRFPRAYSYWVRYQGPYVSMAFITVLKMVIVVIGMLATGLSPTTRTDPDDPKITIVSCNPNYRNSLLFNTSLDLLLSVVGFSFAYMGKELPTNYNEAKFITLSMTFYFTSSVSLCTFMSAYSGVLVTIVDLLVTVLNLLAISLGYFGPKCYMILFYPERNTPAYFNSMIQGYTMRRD
T1 sequence (Q7RTX0 21-852 partner): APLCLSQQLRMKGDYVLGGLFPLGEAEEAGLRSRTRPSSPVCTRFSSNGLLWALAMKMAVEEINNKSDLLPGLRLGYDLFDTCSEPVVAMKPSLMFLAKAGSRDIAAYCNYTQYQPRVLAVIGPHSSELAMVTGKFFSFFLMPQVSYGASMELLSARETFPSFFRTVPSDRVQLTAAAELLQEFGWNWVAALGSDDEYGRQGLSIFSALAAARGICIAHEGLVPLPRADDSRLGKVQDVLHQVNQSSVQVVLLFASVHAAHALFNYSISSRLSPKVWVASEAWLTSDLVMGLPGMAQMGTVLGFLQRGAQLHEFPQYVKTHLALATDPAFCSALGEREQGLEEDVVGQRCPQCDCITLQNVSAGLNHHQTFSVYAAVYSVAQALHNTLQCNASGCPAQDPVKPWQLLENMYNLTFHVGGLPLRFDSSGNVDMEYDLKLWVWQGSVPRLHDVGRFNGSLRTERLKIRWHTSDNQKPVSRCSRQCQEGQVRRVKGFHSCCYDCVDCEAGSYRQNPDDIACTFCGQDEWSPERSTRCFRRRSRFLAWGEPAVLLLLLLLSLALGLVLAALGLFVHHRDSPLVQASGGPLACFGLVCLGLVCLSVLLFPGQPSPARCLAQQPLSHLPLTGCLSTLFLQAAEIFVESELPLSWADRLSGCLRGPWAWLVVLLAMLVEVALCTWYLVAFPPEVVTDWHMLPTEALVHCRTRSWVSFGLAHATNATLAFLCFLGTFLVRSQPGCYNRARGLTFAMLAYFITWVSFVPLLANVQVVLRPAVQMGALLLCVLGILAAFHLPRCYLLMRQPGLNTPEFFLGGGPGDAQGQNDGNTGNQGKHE
Assay: Receptor-based assay: sweetener EC50 alone and with test compound (enhancement ratio)
Assay type: cell-based
Conditions: for Fructose Enhancement EC50 Ratio: sweetener fructose; for Sucralose Enhancement EC50 Ratio: sweetener sucralose; for Sucrose Enhancement EC50 Ratio: sweetener sucrose
Outline: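 Sucrose, sucralose or fructose EC50 measured on human T1R2/T1R3, alone and with 3, 10 or 50 μM test compound. Enhancement is the EC50 ratio without/with compound, binned A >20, B 10-20, C >1 to <10.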

NC1=NS(=O)(=O)Nc2cccc(OC[C@H]3CCCN(c4cccc(C(=O)N5CCCC5)n4)C3)c21 [Compound 412]
Fructose Enhancement EC50 Ratio (10 μM test compound): C (A “C” value indicates an enhancement ratio greater than 1 and less than 10)
Fructose Enhancement EC50 Ratio (50 μM test compound): C (A “C” value indicates an enhancement ratio greater than 1 and less than 10)
Sucralose Enhancement EC50 Ratio (10 μM test compound): A (An “A” value indicates an enhancement ratio of greater than 20)
Sucralose Enhancement EC50 Ratio (50 μM test compound): A (An “A” value indicates an enhancement ratio of greater than 20)
Sucrose Enhancement EC50 Ratio (3 μM test compound): C (A “C” value indicates an enhancement ratio greater than 1 and less than 10)
Sucrose Enhancement EC50 Ratio (10 μM test compound): C (A “C” value indicates an enhancement ratio greater than 1 and less than 10)
Sucrose Enhancement EC50 Ratio (50 μM test compound): B (A “B” value indicates an enhancement ratio from 10 to 20)

NC1=NS(=O)(=O)Nc2cccc(OC[C@H]3CCCN(c4cccc(C(=O)N5CCCCC5)n4)C3)c21 [Compound 413]
Fructose Enhancement EC50 Ratio (50 μM test compound): C (A “C” value indicates an enhancement ratio greater than 1 and less than 10)
Sucralose Enhancement EC50 Ratio (10 μM test compound): B (A “B” value indicates an enhancement ratio from 10 to 20)
Sucralose Enhancement EC50 Ratio (50 μM test compound): A (An “A” value indicates an enhancement ratio of greater than 20)
Sucrose Enhancement EC50 Ratio (3 μM test compound): C (A “C” value indicates an enhancement ratio greater than 1 and less than 10)
Sucrose Enhancement EC50 Ratio (10 μM test compound): C (A “C” value indicates an enhancement ratio greater than 1 and less than 10)
Sucrose Enhancement EC50 Ratio (50 μM test compound): C (A “C” value indicates an enhancement ratio greater than 1 and less than 10)

NC1=NS(=O)(=O)Nc2cccc(OC[C@H]3CCCN(c4cccc(C(=O)N5CCOCC5)n4)C3)c21 [Compound 414]
Fructose Enhancement EC50 Ratio (10 μM test compound): C (A “C” value indicates an enhancement ratio greater than 1 and less than 10)
Fructose Enhancement EC50 Ratio (50 μM test compound): C (A “C” value indicates an enhancement ratio greater than 1 and less than 10)
Sucralose Enhancement EC50 Ratio (10 μM test compound): A (An “A” value indicates an enhancement ratio of greater than 20)
Sucrose Enhancement EC50 Ratio (3 μM test compound): C (A “C” value indicates an enhancement ratio greater than 1 and less than 10)
Sucrose Enhancement EC50 Ratio (10 μM test compound): C (A “C” value indicates an enhancement ratio greater than 1 and less than 10)
Sucrose Enhancement EC50 Ratio (50 μM test compound): B (A “B” value indicates an enhancement ratio from 10 to 20)

CN1CCN(C(=O)c2cccc(N3CCC[C@H](COc4cccc5c4C(N)=NS(=O)(=O)N5)C3)n2)CC1 [Compound 415]
Fructose Enhancement EC50 Ratio (10 μM test compound): C (A “C” value indicates an enhancement ratio greater than 1 and less than 10)
Fructose Enhancement EC50 Ratio (50 μM test compound): C (A “C” value indicates an enhancement ratio greater than 1 and less than 10)
Sucralose Enhancement EC50 Ratio (50 μM test compound): A (An “A” value indicates an enhancement ratio of greater than 20)
Sucrose Enhancement EC50 Ratio (3 μM test compound): C (A “C” value indicates an enhancement ratio greater than 1 and less than 10)
Sucrose Enhancement EC50 Ratio (10 μM test compound): C (A “C” value indicates an enhancement ratio greater than 1 and less than 10)
Sucrose Enhancement EC50 Ratio (50 μM test compound): C (A “C” value indicates an enhancement ratio greater than 1 and less than 10)

CC(C)CNC(=O)c1cccc(N2CCC[C@H](COc3cccc4c3C(N)=NS(=O)(=O)N4)C2)n1 [Compound 416]
Fructose Enhancement EC50 Ratio (50 μM test compound): C (A “C” value indicates an enhancement ratio greater than 1 and less than 10)
Sucralose Enhancement EC50 Ratio (10 μM test compound): A (An “A” value indicates an enhancement ratio of greater than 20)
Sucralose Enhancement EC50 Ratio (50 μM test compound): A (An “A” value indicates an enhancement ratio of greater than 20)
Sucrose Enhancement EC50 Ratio (3 μM test compound): C (A “C” value indicates an enhancement ratio greater than 1 and less than 10)
Sucrose Enhancement EC50 Ratio (10 μM test compound): C (A “C” value indicates an enhancement ratio greater than 1 and less than 10)
Sucrose Enhancement EC50 Ratio (50 μM test compound): B (A “B” value indicates an enhancement ratio from 10 to 20)

NC1=NS(=O)(=O)Nc2cccc(OC[C@H]3CCCN(c4cccc(C(=O)NCC5CC5)n4)C3)c21 [Compound 417]
Fructose Enhancement EC50 Ratio (50 μM test compound): C (A “C” value indicates an enhancement ratio greater than 1 and less than 10)
Sucralose Enhancement EC50 Ratio (10 μM test compound): A (An “A” value indicates an enhancement ratio of greater than 20)
Sucralose Enhancement EC50 Ratio (50 μM test compound): A (An “A” value indicates an enhancement ratio of greater than 20)
Sucrose Enhancement EC50 Ratio (3 μM test compound): C (A “C” value indicates an enhancement ratio greater than 1 and less than 10)
Sucrose Enhancement EC50 Ratio (10 μM test compound): C (A “C” value indicates an enhancement ratio greater than 1 and less than 10)
Sucrose Enhancement EC50 Ratio (50 μM test compound): C (A “C” value indicates an enhancement ratio greater than 1 and less than 10)

NC1=NS(=O)(=O)Nc2cccc(OC[C@H]3CCCN(c4cccc(C(=O)NCC5CCCCC5)n4)C3)c21 [Compound 418]
Sucralose Enhancement EC50 Ratio (10 μM test compound): B (A “B” value indicates an enhancement ratio from 10 to 20)
Sucralose Enhancement EC50 Ratio (50 μM test compound): A (An “A” value indicates an enhancement ratio of greater than 20)
Sucrose Enhancement EC50 Ratio (3 μM test compound): C (A “C” value indicates an enhancement ratio greater than 1 and less than 10)
Sucrose Enhancement EC50 Ratio (10 μM test compound): C (A “C” value indicates an enhancement ratio greater than 1 and less than 10)
Sucrose Enhancement EC50 Ratio (50 μM test compound): C (A “C” value indicates an enhancement ratio greater than 1 and less than 10)

CNC(=O)c1ccc(N2CCC[C@H](COc3cccc4c3C(N)=NS(=O)(=O)N4)C2)nc1 [Compound 500]
Sucralose Enhancement EC50 Ratio (10 μM test compound): A (An “A” value indicates an enhancement ratio of greater than 20)
Sucralose Enhancement EC50 Ratio (50 μM test compound): A (An “A” value indicates an enhancement ratio of greater than 20)
Sucrose Enhancement EC50 Ratio (3 μM test compound): C (A “C” value indicates an enhancement ratio greater than 1 and less than 10)
Sucrose Enhancement EC50 Ratio (10 μM test compound): C (A “C” value indicates an enhancement ratio greater than 1 and less than 10)
Sucrose Enhancement EC50 Ratio (50 μM test compound): C (A “C” value indicates an enhancement ratio greater than 1 and less than 10)

CCNC(=O)c1ccc(N2CCC[C@H](COc3cccc4c3C(N)=NS(=O)(=O)N4)C2)nc1 [Compound 501]
Fructose Enhancement EC50 Ratio (10 μM test compound): C (A “C” value indicates an enhancement ratio greater than 1 and less than 10)
Fructose Enhancement EC50 Ratio (50 μM test compound): C (A “C” value indicates an enhancement ratio greater than 1 and less than 10)
Sucralose Enhancement EC50 Ratio (10 μM test compound): A (An “A” value indicates an enhancement ratio of greater than 20)
Sucralose Enhancement EC50 Ratio (50 μM test compound): A (An “A” value indicates an enhancement ratio of greater than 20)
Sucrose Enhancement EC50 Ratio (3 μM test compound): C (A “C” value indicates an enhancement ratio greater than 1 and less than 10)
Sucrose Enhancement EC50 Ratio (10 μM test compound): C (A “C” value indicates an enhancement ratio greater than 1 and less than 10)
Sucrose Enhancement EC50 Ratio (50 μM test compound): C (A “C” value indicates an enhancement ratio greater than 1 and less than 10)

CCCNC(=O)c1ccc(N2CCC[C@H](COc3cccc4c3C(N)=NS(=O)(=O)N4)C2)nc1 [Compound 502]
Fructose Enhancement EC50 Ratio (10 μM test compound): C (A “C” value indicates an enhancement ratio greater than 1 and less than 10)
Fructose Enhancement EC50 Ratio (50 μM test compound): C (A “C” value indicates an enhancement ratio greater than 1 and less than 10)
Sucralose Enhancement EC50 Ratio (10 μM test compound): A (An “A” value indicates an enhancement ratio of greater than 20)
Sucralose Enhancement EC50 Ratio (50 μM test compound): A (An “A” value indicates an enhancement ratio of greater than 20)
Sucrose Enhancement EC50 Ratio (3 μM test compound): C (A “C” value indicates an enhancement ratio greater than 1 and less than 10)
Sucrose Enhancement EC50 Ratio (10 μM test compound): C (A “C” value indicates an enhancement ratio greater than 1 and less than 10)
Sucrose Enhancement EC50 Ratio (50 μM test compound): C (A “C” value indicates an enhancement ratio greater than 1 and less than 10)
